In article PMC117120 (BMC Biochemistry, 2002):
Substitutions are numbered along the chain they refer to. Read-outs that look alike come from different tables or passages of the source.

Columns and labels:
wt 5-HT3ASR = molecular target: T1, wt 5-HT3ASR (Mus musculus, UniProt P23979); details: for response amplitude: 4 s, representative trace
T1 sequence (P23979 24-483 isoform P23979-2 limits assumed): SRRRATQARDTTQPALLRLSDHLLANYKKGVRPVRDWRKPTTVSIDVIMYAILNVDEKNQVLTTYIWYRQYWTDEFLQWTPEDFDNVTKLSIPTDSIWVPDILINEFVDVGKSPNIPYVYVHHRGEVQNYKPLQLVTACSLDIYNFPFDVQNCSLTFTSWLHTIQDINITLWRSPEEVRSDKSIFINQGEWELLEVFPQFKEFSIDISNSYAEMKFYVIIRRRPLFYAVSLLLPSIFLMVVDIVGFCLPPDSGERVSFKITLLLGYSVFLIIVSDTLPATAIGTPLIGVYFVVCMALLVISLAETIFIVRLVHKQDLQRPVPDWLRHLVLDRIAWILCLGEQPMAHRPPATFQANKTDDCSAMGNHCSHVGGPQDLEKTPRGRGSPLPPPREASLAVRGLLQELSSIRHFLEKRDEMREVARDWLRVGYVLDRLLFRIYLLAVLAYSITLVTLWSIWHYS

Y140A mutant 5-HT3ASR = molecular target: T2, Y140A mutant 5-HT3ASR (Mus musculus, UniProt P23979, Y141A); test: Whole cell patch clamp, cells transfected with Y140A cDNA; assay type: cell-based; details: 5-HT concentrations of up to 1 mM
T2 sequence (P23979 24-483 isoform P23979-2 Y141A): T1 sequence (P23979 24-483 isoform P23979-2 limits assumed) with Y118A

Y142A mutant 5-HT3ASR = molecular target: T3, Y142A mutant 5-HT3ASR (Mus musculus, UniProt P23979, Y143A); test: Whole cell patch clamp, cells transfected with Y142A cDNA; assay type: cell-based; details: 5-HT concentrations of up to 1 mM
T3 sequence (P23979 24-483 isoform P23979-2 Y143A): T1 sequence (P23979 24-483 isoform P23979-2 limits assumed) with Y120A

Y152A mutant 5-HT3ASR = molecular target: T4, Y152A mutant 5-HT3ASR (Mus musculus, UniProt P23979, Y153A); test: Whole cell patch clamp, tsA201 cells transfected with Y152A cDNA; assay type: cell-based; details: for response amplitude: 8 s, representative trace
T4 sequence (P23979 24-483 isoform P23979-2 Y153A): T1 sequence (P23979 24-483 isoform P23979-2 limits assumed) with Y130A

Question: Which desensitization (wt 5-HT3ASR) does the source give for `NCCc1c[nH]c2ccc(O)cc12` [5-HT, serotonin] here?
Answer: The desensitization was “desensitized rapidly”.

Question: What about the “time to peak response” value (wt 5-HT3ASR) of the same molecule?
Answer: Its value is “less than 80 ms”.

Question: And the response amplitude (wt 5-HT3ASR; 0.3 μM 5-HT)?
Answer: The response amplitude was 0.03 nA.

Question: And the response amplitude (wt 5-HT3ASR; 1.0 μM 5-HT)?
Answer: The response amplitude was 0.96 nA.

Question: And the response amplitude (wt 5-HT3ASR; 3.0 μM 5-HT)?
Answer: Its response amplitude is 2.5 nA.

Question: And the response amplitude (wt 5-HT3ASR; 30.0 μM 5-HT)?
Answer: Its response amplitude is 4.4 nA.

Question: What about the response amplitude (wt 5-HT3ASR; 100.0 μM 5-HT) of the same molecule?
Answer: The response amplitude was 3.9 nA.

Question: And the “whole cell response to 5-HT” value (Y140A mutant 5-HT3ASR)?
Answer: The value was “no responses”.

Question: And the “whole cell response to 5-HT” value (Y142A mutant 5-HT3ASR)?
Answer: The value was “no responses”.

Question: And the “time for response to plateau” value (Y152A mutant 5-HT3ASR)?
Answer: Its value is “several seconds”.

Question: And the response amplitude (Y152A mutant 5-HT3ASR; 3.0 μM 5-HT)?
Answer: Its response amplitude is 0.10 nA.

Question: What about the response amplitude (Y152A mutant 5-HT3ASR; 100 μM 5-HT) of the same molecule?
Answer: The response amplitude was 0.14 nA.

Question: And the response amplitude (Y152A mutant 5-HT3ASR; 300.0 μM 5-HT)?
Answer: Its response amplitude is 0.57 nA.

Question: What about the response amplitude (Y152A mutant 5-HT3ASR; 1.0 mM 5-HT) of the same molecule?
Answer: The response amplitude was 1.0 nA.

Question: And the desensitization (Y152A mutant 5-HT3ASR; during the 8 s perfusion time)?
Answer: Its desensitization is “no desensitization”.
